Experimental data: patent US4215112A, “Tripeptides and methods” (Ortho Pharmaceutical Corporation, priority 1979, dated 1980)
Where a SMILES comes first, the peptide text is derived from it. Where no end group is shown, it is not given here. [ ]: non-standard residue; d: D form. Glx = not defined here; Sar = CNCC(=O)O

Assays:
[1] = tested on: Th-1+ T lymphocytes (T-precursor cells of bone marrow); assay: chicken induction assay, Th-1+ T cells; assay type: cell-based
Excerpt: (§1) To determine the activity and characteristics of the tripeptide amide produced in Example I, the following chicken induction assay was employed. This assay is described in greater detail in Brand, et al., Science, 193, 319-321 (July 23, 1976) and references contained therein.
(§2) Bone marrow from newly-hatched chickens was selected as a source of inducible cells because it lacks an appreciable number of Bu-1^+ or Th-1^+ cells. Pooled cells from femur and tibiotarsus of five newly-hatched chicks of strain SC (Hy-Line) were fractionated by ultracentrifugation on a five-layer discontinuous bovine serum albumin (BSA) gradient. Cells from the two lighter layers were combined, washed, and suspended for incubation at a concentration of 5×10^6 cells per milliliter with the appropriate concentration of test polypeptide in RPMI 1630 medium supplemented with 15 mM hepes, 5 percent γ-globulin-free fetal calf serum, deoxyribonuclease (14 to 18 unit/ml), heparin (5 unit/ml), penicillin (100 unit/ml), and streptomycin (100 μg/ml). Controls were incubated with BSA (1 μg/ml) or medium alone. After incubation, the cells were tested in the cytotoxicity assay using chicken Cl and guinea pig C2 to C9 complement fractions as described in the reference article. The proportion of Bu-1^+ or Th-1^+ cells in each layer was calculated as a cytotoxicity index, 100 (a-b)/a, where a and b are the percentages of viable cells in the complement control and test preparation, respectively. The percentage of cells induced was obtained by subtracting the mean values in the control incubations without inducing agents (usually 1 to 3 percent) from those of the test inductions.
(§3) This high dose of ubiquitin inactivates the ubiquitin receptors and thus prevents the induction of cells by any agent which acts through these receptors.

[2] = tested on: Bu-1+ B lymphocytes (B-precursor cells of bone marrow); assay: chicken induction assay, Bu-1+ B cells; assay type: cell-based
Excerpt: as §1, §2, §3

T cells and B cells = conditions: literature / copending application; cited from earlier work
[3] = tested on: immunocyte-precursor cells; assay: in vitro induction of differentiation of immunocyte-precursor cells (general statement); assay type: cell-based
Excerpt: Stated another way, the subject polypeptides have the capability of inducing differentiation of both Th-1^+ T-lymphocytes and Bu-1^+ B-lymphocytes.
The carrier may be any of the well-known carriers for this purpose including normal saline solutions, preferably with a protein diluent such as bovine serum albumin to prevent adsorptive losses to glassware at these low concentrations. The polypeptides of this invention are generally active when parenterally administered at a range of above about 1 μg/kg of body weight. For the treatment of DiGeorge Syndrome, the polypeptides may be parenterally administered at a rate of about 1 to about 100 μg/kg of body weight. Generally, the same range of dosage amounts may be used in treatment of the other conditions or diseases mentioned.

T cells = conditions: E rosette assay; literature; cited from earlier work
[4] = bone marrow cells of newly-hatched chickens, cytotoxicity assay

In the case of `C[C@@H](NC(=O)[C@@H](N)CCCCN)C(=O)N[C@@H](CCC(N)=O)C(N)=O` [H--LYS--D--ALA--GLN--NH2] (H-Lys-[dA]-Gln-NH2), the “biological activity: induction of differentiation of Th-1+ T cells” value ([1]; result in words) is reported as “Biological activity similar to that of ubiquitin was observed” and the “biological activity: induction of differentiation of Bu-1+ B cells” value ([2]; result in words) is reported as “Biological activity similar to that of ubiquitin was observed”.

For H--SAR--LYS--SAR--GLN--NH2, the “differentiation of T cells and B cells” value (T cells and B cells) is given as “same activity as FTS”.

With `CN(CC(=O)N[C@@H](CCC(N)=O)C(N)=O)C(=O)[C@@H](N)CCCCN` [amidated tripeptide of Example I, H--LYS--SAR--GLN--NH2] (H-Lys-[Sar]-Gln-NH2) the “concentration inducing the differentiation of Th-1+ T lymphocytes” value [1, 4] was 100 pg/mL, the “effect of added ubiquitin on induction of Th-1+ T cells by the test polypeptide” value ([1]; ubiquitin 100 μg/ml added) was “inhibition of induction” and the “concentration at which active” value [3] was “about 100 pg/ml”. For the same molecule, the “concentration inducing the differentiation of Bu-1+ B lymphocytes” value [2, 4] was 100 pg/mL and the “effect of added ubiquitin on induction of Bu-1+ B cells by the test polypeptide” value ([2]; ubiquitin 100 μg/ml added) was “inhibition of induction”.

In the case of “GLX--ALA--LYS--SER--GLN--GLY--GLY--SER--ASN (Glx-AKSQGGSN; reading uncertain; also: N-terminal Glx: Gln or pyroglutamic acid, printed as GLX--ALA--LYS--SER--GLN--GLY--GLY--SER--ASN) [FTS, nonapeptide isolated from porcine serum; GLX is glutamine or pyroglutamic acid]”, the “differentiation of T cells and B cells” value (T cells and B cells) is listed as “differentiated both T cells and B cells” and the “differentiation of T cells versus B cells” value (T cells) is listed as “selectively differentiated T cells (and not B cells)”.

For “H--ALA--LYS--SER--GLN--OH (H-AKSQ-OH) [tetrapeptide of copending application Ser. No. 960,550]”, the “differentiation of T cells and B cells” value (T cells and B cells) is given as “same activity as FTS”.
